Test results: BindingDB's records for doi:10.1016/j.bmcl.2010.09.009 (Merck Research Laboratories, 2010)

Assay: Inhibition of PAR1-mediated aggregation of TRAP-stimulated human platelet

Molecule CCOC(=O)N[C@@H]1CC[C@@H]2[C@@H](C1)C[C@H]1C(=O)O[C@H](C)[C@H]1[C@H]2C=Cc1ccc(-c2ccccn2)cn1 [ethyl(1R,3aR,4aR,6R,8aR,9S,9aS)-9-((E)-2-(2,3'-bipyridin-6'-yl)vinyl)-1-methyl-3-oxododecahydronaphtho[2,3-c]furan-6-ylcarbamate] has an IC50 of 0.18 µM.
